Key:
[1] = Body weight, biochemical and haematological parameters in DHT-induced AGA mice (0.5% testosterone then topical treatment); assay type: in vivo, C57BL/6J mice; conditions: for LYMPH: unit assumed
Procedure: The experiments were performed on C57BL/6 J and Athymic nude mice (NU/J Foxn1^nu) of 6–7 weeks of age obtained from Animal House Facility, CSIR-Indian Institute of Integrative Medicine (IIIM), Jammu, India. […] The animals were provided with ad libitum feed (standard pellet diet) and autoclaved RO water throughout the study. The body weight of mice was measured after seven days before treatment.
(§1) C57BL/6 J mice (male) were obtained from CSIR-IIIM Animal House at 7 weeks of age. We used a DHT-induced AGA mice model for this study. […] At the end of the experiment, skin samples were collected and preserved in 10% neutral buffered formalin for tissue sectioning and staining using haematoxylin and eosin (H&E). The histopathological examinations were performed under the 10× and 40× objectives of light microscope (Magnus, Mx21i).
Every two weeks during the experimental period, mice were anesthetized, and the blood samples were collected into tubes containing heparin sodium to detect the total and differential white blood cells, haemoglobin, red blood cell, platelet count, mean corpuscular haemoglobin, mean corpuscular volume, red blood cell volume, mean platelet volume, and analyzed using an automated haematology analyzer (Model: XT1800i; Make: Sysmex).
Every two weeks during the experimental period, mice and rats were anesthetized, and blood samples were collected into non-heparinized tubes and then centrifuged at 1000 rpm at 4 °C for 10 min to obtain the serum. The biochemical parameters, including total protein, aspartate aminotransferase, alanine aminotransferase, total protein, albumin, total bilirubin, direct bilirubin, glucose, total cholesterol, triglyceride, low-density lipoprotein, high-density lipoprotein, creatinine, and uric acid, were measured using an automatic biochemical analyzer (Model: EM360; Make: Erba Mannheim).

DHT-induced AGA mice = assay: Hair regrowth in DHT-induced AGA mice model (topical, 28 days); assay type: in vivo, C57BL/6J mice
Procedure: as §1
Dorsal skin samples from C57BL/6J mice were shaved and collected for histological and molecular analyses on Days 7, 14, 21, and 28. The full-thickness skin tissue was fixed in a 10% neutral buffered formalin solution (Sigma) overnight and subsequently dehydrated for embedding in paraffin. Haematoxylin and eosin (H&E) staining was performed on the skin tissue, and digital photomicrographs were taken from the representative areas using light microscope (Magnus, Mx21i).
The quantification of anagen initiation was assessed by observing changes in the dorsal skin colour of C57BL/6 mice, a phenomenon closely linked to the onset of the anagen phase. Anagen quantification was done by employing threshold analysis on dorsal skin colouration using ImageJ. The darkening of the skin, attributed to melanogenesis, strongly correlates with the progression of anagen. This analysis is visually depicted as a heatmap using GraphPad Prism 9.5 Software.

## CCS(=O)(=O)N1CC(CC#N)(n2cc(-c3ncnc4[nH]ccc34)cn2)C1 [Baricitinib, baricitinib, reference compound]
[1]; Day 21, 0.02 mg/Kg
  ALP: 108 U/L
  ALT/SGPT: 74 U/L
  AST/SGOT: 143 U/L
  Cholesterol: 171 mg/dL
  Creatine: 0.72 mg/dL
  HCT: 45%
  HDL: 105 mg/dL
  LDL: 101 mg/dL
  MCHC: 28 g/dL
  MCV: 52 fL
  NEUT: 30.5%
  PLT: 946 103/μl
  RBC: 8.2 1012/l
  Total protein: 5.0 g/dL
  Triglyceride: 98 mg/dL
  Urea: 69 mg/dL
  WBC: 4.3 103/μl
  LYMPH: 67.4%
[1]; Day 21, 0.04 mg/Kg
  ALP: 99 U/L
  ALT/SGPT: 64 U/L
  AST/SGOT: 98 U/L
  Cholesterol: 171 mg/dL
  Creatine: 0.69 mg/dL
  HCT: 43%
  HDL: 122 mg/dL
  LDL: 106 mg/dL
  MCHC: 29 g/dL
  MCV: 52 fL
  NEUT: 30.5%
  PLT: 1082 103/μl
  RBC: 8.6 1012/l
  Total protein: 4.9 g/dL
  Triglyceride: 139 mg/dL
  Urea: 54 mg/dL
  WBC: 3.6 103/μl
  LYMPH: 67.4%
[1]; Day 21, 0.1mg/Kg
  ALP: 144 U/L
  ALT/SGPT: 92 U/L
  AST/SGOT: 104 U/L
  Cholesterol: 173 mg/dL
  Creatine: 0.48 mg/dL
  HCT: 48%
  HDL: 108 mg/dL
  LDL: 100 mg/dL
  MCHC: 29 g/dL
  MCV: 50 fL
  NEUT: 26.8%
  PLT: 1149 103/μl
  RBC: 9.6 1012/l
  Total protein: 5.0 g/dL
  Triglyceride: 119 mg/dL
  Urea: 51 mg/dL
  WBC: 6.4 103/μl
  LYMPH: 71.3%
[1]; Day 28, 0.02 mg/Kg
  ALP: 159 U/L
  ALT/SGPT: 71 U/L
  AST/SGOT: 129 U/L
  Cholesterol: 213 mg/dL
  Creatine: 0.16 mg/dL
  HCT: 48.0%
  HDL: 173 mg/dL
  HGB: 15 g/dL
  LDL: 98 mg/dL
  MCHC: 30.0 g/dL
  MCV: 62 fL
  PLT: 1724 103/μl
  RBC: 7.8 106/μl
  Total protein: 5.8 g/dL
  Triglyceride: 90 mg/dL
  Urea: 60 mg/dL
  WBC: 6.3 103/μl
[1]; Day 28, 0.04 mg/Kg
  ALP: 174 U/L
  ALT/SGPT: 88 U/L
  AST/SGOT: 123 U/L
  Cholesterol: 182 mg/dL
  Creatine: 0.11 mg/dL
  HCT: 48.0%
  HDL: 143 mg/dL
  HGB: 14 g/dL
  LDL: 85 mg/dL
  MCHC: 29.0 g/dL
  MCV: 60 fL
  PLT: 1427 103/μl
  RBC: 8.0 106/μl
  Total protein: 6.3 g/dL
  Triglyceride: 123 mg/dL
  Urea: 66 mg/dL
  WBC: 3.1 103/μl
[1]; Day 28, 0.1mg/Kg
  ALP: 184 U/L
  ALT/SGPT: 74 U/L
  AST/SGOT: 86 U/L
  Cholesterol: 164 mg/dL
  Creatine: 0.13 mg/dL
  HCT: 43.0%
  HDL: 134 mg/dL
  HGB: 14 g/dL
  LDL: 78 mg/dL
  MCHC: 33.0 g/dL
  MCV: 67 fL
  PLT: 1394 103/μl
  RBC: 6.4 106/μl
  Total protein: 6.2 g/dL
  Triglyceride: 72 mg/dL
  Urea: 53 mg/dL
  WBC: 3.9 103/μl
DHT-induced AGA mice; 0.04mg/kg, Days 7, 14, 21, 28
  H&E skin histopathology finding: Minimal degree of epidermal thickening with increased distinct hair follicles
DHT-induced AGA mice; skin samples days 7, 14, 21, 28
  hair follicle phase (histopathology): at least in the anagen IIIc-IV phase
DHT-induced AGA mice; topical once a day in presence of testosterone
  entry into the anagen phase: rapid entry into the anagen phase within seven days of treatment

Reference: publication PMC11025159 (Journal of Translational Medicine, 2024)
